Like-named read-outs stand apart in the source and are kept apart here.
Key:
[1] = Cyclic voltammetry measurements (oxidation-reduction potentials); assay type: physicochemical; details: for E°′ ACN (V vs Fc/Fc^+): acetonitrile; for E°′ ACN (V vs Fc/Fc^+) / E°′ PC (V vs Fc/Fc^+): 0.1 M TBABF4, glassy carbon working electrode, 25° C., normalised to Fc/Fc^+; for E°′ PC (V vs Fc/Fc^+): propylene carbonate
Description: Cyclic voltammetry measurements were carried out in a hemi-cell with a three-electrode configuration, with glassy carbon working electrode, platinum counter electrode and silver/silver chloride (Ag/AgCl) reference electrode. The oxidation-reduction potentials E°′Ox/Red were derived from the position of the forward peak (Epf) and the return peak (Epr):
and the values were normalised with respect to the intersolvent ferrocene/ferrocenium (Fc/Fc^+) couple.
Evaluations were carried out on an Autolab PGSTAT 128N analytical instrument at scan rates of 10, 20, 50, 70, 100, and 200 mV/s. All evaluations were carried out in triplicate at room temperature (25° C.). For the purpose, use was made of solutions containing: • benzothiadiazole (1) (Aldrich) (5×10^−3 M) and tetrabutylammonium tetrafluoro-borate (TBABF4) (Aldrich) (0.1 M) in acetonitrile (Aldrich) (non-aqueous liquid negative electrolyte of the negative compartment) (BTD); • benzothiadiazole (1) (Aldrich) (5×10^−3 M) and tetrabutylammonium tetrafluoro-borate (TBABF4) (Aldrich) (0.1 M) in propylene carbonate (Aldrich) (non-aqueous liquid negative electrolyte of the negative compartment) (BTD); • 4,7-di[2-(propyloxycarbonylethyloxy)phenyl]-benzothiadiazole [compound (2) obtained in Example 7] (5×10^−3 M) and tetrabutylammonium tetrafluoroborate (TBABF4) (Aldrich) (0.1 M) in acetonitrile (Aldrich) (non-aqueous liquid negative electrolyte of the negative compartment) (BTD); • 4,7-di[2-(propyloxycarbonylethyloxy)phenyl]-benzothiadiazole [compound (2) obtained in Example 7] (5×10^−3 M) and tetrabutylammonium tetrafluoroborate (TBABF4) (Aldrich) (0.1 M) in propylene carbonate (Aldrich) (non-aqueous liquid negative electrolyte of the negative compartment) [BTD (2)]; • 4,7-di[2-methoxycarbonylethyloxy)phenyl]-benzothiadiazole [compound (3) obtained in Example 1] (5×10^−3 M) and tetrabutylammonium tetrafluoroborate (TBABF4) (Aldrich) (0.1 M) in acetonitrile (Aldrich) (non-aqueous liquid negative electrolyte of the negative compartment) [BTD (3)]; • 4,7-di[2-(methoxycarbonylethyloxy)phenyl]-benzothiadiazole [compound (3) obtained in Example 1] (5×10^−3 M) and tetrabutylammonium tetrafluoroborate (TBABF4) (Aldrich) (0.1 M) in propylene carbonate (Aldrich) (non-aqueous liquid negative electrolyte of the negative compartment) [BTD (3)]; • 4,7-di[2-(2-(2-methoxyethoxy)ethoxy)phenyl]-benzothiadiazole [compound (4) obtained in Example 3] (5×10^−3 M) and tetrabutylammonium tetrafluoroborate (TBABF4) (Aldrich) (0.1 M) in acetonitrile (Aldrich) (non-aqueous liquid negative electrolyte of the negative compartment) [BTD (4)]; • 4,7-di[2-(2-(2-methoxyethoxy)ethoxy)phenyl]-benzothiadiazole [compound (4) obtained in Example 3] (5×10^−3 M) and tetrabutylammonium tetrafluoroborate (TBABF4) (Aldrich) (0.1 M) in propylene carbonate (Aldrich) (non-aqueous liquid negative electrolyte of the negative compartment) [BTD (4)]; • 4,7-di[2,6-di(propyloxycarbonylethyloxy)phenyl]-benzothiadiazole [compound (5) obtained in Example 4] (5×10^−3 M) and tetrabutylammonium tetrafluoroborate (TBABF4) (Aldrich) (0.1 M) in acetonitrile (Aldrich) (non-aqueous liquid negative electrolyte of the negative compartment) [BTD (5)]; • 4,7-di[2,6-di(propyloxycarbonylethyloxy)phenyl]-benzothiadiazole [compound (5) obtained in Example 4] (5×10^−3 M) and tetrabutylammonium tetrafluoroborate (TBABF4) (Aldrich) (0.1 M) in propylene carbonate (Aldrich) (non-aqueous liquid negative electrolyte of the negative compartment) [BTD (5)]; • 4,7-di[2,5-di(propyloxycarbonylethyloxy)phenyl]-benzothiadiazole [compound (6) obtained in Example 5] (5×10^−3 M) and tetrabutylammonium tetrafluoroborate (TBABF4) (Aldrich) (0.1 M) in acetonitrile (Aldrich) (non-aqueous liquid negative electrolyte of the negative compartment) [BTD (6)]; • 4,7-di[2,5-di(propyloxycarbonylethyloxy)phenyl]-benzothiadiazole [compound (6) obtained in Example 5] […]

[2] = Stability tests in cyclic voltammetry; assay type: physicochemical; details: 1×10^−3 M, 0.1 M TBABF4 in acetonitrile
Description: Stability tests were carried out using the same electrochemical cell as in Example 9.
For the purpose, use was made of solutions containing: • 4,7-di[2-(propyloxycarbonylethyloxy)phenyl]-benzothiadiazole [Compound (2) obtained in Example 2 or 7] (1×10^−3 M) and tetrabutylammonium tetrafluoroborate (TBABF4) (Aldrich) 0.1 M in acetonitrile (Aldrich) (non-aqueous liquid negative electrolyte of the negative compartment).

[3] = Non-aqueous redox flow battery (RFB) charge/discharge tests
Description: Charge-discharge tests were carried out using an electrochemical cell with a Teflon® membrane (DuPont), having a surface area equal to approximately 0.8 cm^2, placed between two platinum electrodes (Methrohm) having a surface area equal to approximately 0.07 cm^2. The electrochemical cell was then assembled and sealed in a container containing argon (Ar).
For the purpose, use was made of solutions containing: • 4,7-di[2-(propyloxycarbonylethyloxy)phenyl]-benzothiadiazole [Compound (2) obtained in Example 7]: (1×10^−3 M) and tetrabutylammonium tetrafluoroborate (TBABF4) (Aldrich) (0.1 M) in acetonitrile (Aldrich) (non-aqueous liquid negative electrolyte of the negative compartment), degassed with argon (Ar) and subjected to electrolysis in order to obtain benzothiadiazole in reduced form [(BTD (2)·^−)]; • tetrakisacetonitrile copper(I) tetrafluoroborate [Cu(NCCH3)4·BF4] (1×10^−3 M) and tetrabutylammonium tetrafluoroborate (TBABF4) (Aldrich) (0.1 M) in acetonitrile (Aldrich) (non-aqueous liquid positive electrolyte of the positive compartment) (Cu triflate), degassed with argon (Ar).
6 ml of the above solutions were introduced into the respective compartments.
The test was carried out using a potentiostat/galvanostat Autolab PGSTAT 128N (Metrohom) at room temperature (25° C.).
Charge and discharge curves were carried out to assess the performance of the electrolytes in the cell. […]

SMILES	E°′ ACN (V vs Fc/Fc^+) [1] [V vs Fc/Fc^+]	E°′ PC (V vs Fc/Fc^+) [1] [V vs Fc/Fc^+]	potential difference (E°) in open circuit ([1]; solution in acetonitrile, E°=(E°1)−(E°2) against Cu triflate (0.62 V)) [V]	stability over 150 successive redox cycles [2]	stability during charge/discharge (oxidation-reduction cycles) [3]	stability during charge/discharge (oxidation-reduction cycles) ([3]; 1×10^−3 M in acetonitrile, 0.1 M TBABF4, Teflon membrane, charge 2.5 V, discharge 0.5 V, 240 seconds each, 25° C.)
CCOC(=O)CCCOc1cccc(OCCCC(=O)OCC)c1-c1ccc(-c2c(OCCCC(=O)OCC)cccc2OCCCC(=O)OCC)c2nsnc12 [Compound (5)]	−2.00	−1.95				
O=S(=O)([O-])C(F)(F)F.O=S(=O)([O-])C(F)(F)F.[Cu+2] [Cu triflate, copper(II) trifluoromethanesulphonate, reference compound]	0.62	0.43				
CC#N.CC#N.CC#N.CC#N.F[B-](F)(F)F.[Cu+] [Cu, tetrakisacetonitrile copper(I) tetrafluoroborate, reference compound]						good stability during oxidation-reduction cycles

Now from value to compound, other results behind:

E°′ ACN (V vs Fc/Fc^+) [1] [V vs Fc/Fc^+]	E°′ PC (V vs Fc/Fc^+) [1] [V vs Fc/Fc^+]	potential difference (E°) in open circuit ([1]; solution in acetonitrile, E°=(E°1)−(E°2) against Cu triflate (0.62 V)) [V]	stability over 150 successive redox cycles [2]	SMILES	stability during charge/discharge (oxidation-reduction cycles) [3]	stability during charge/discharge (oxidation-reduction cycles) ([3]; 1×10^−3 M in acetonitrile, 0.1 M TBABF4, Teflon membrane, charge 2.5 V, discharge 0.5 V, 240 seconds each, 25° C.)
−1.91	−1.84	2.53	the cycles are superimposable	CCOC(=O)CCCOc1ccccc1-c1ccc(-c2ccccc2OCCCC(=O)OCC)c2nsnc12 [Compound (2)]	good stability during oxidation-reduction cycles	
−1.86	−1.82			CCOC(=O)COc1ccccc1-c1ccc(-c2ccccc2OCC(=O)OCC)c2nsnc12 [Compound (3)]		
−1.90	−1.85			COCCOCCOc1ccccc1-c1ccc(-c2ccccc2OCCOCCOC)c2nsnc12 [Compound (4), 4,7-di[2-(2-(2-methoxyethoxy)ethoxy)phenyl]-benzothiadiazole]		
−1.88	−1.83			CCOC(=O)CCCOc1ccc(OCCCC(=O)OCC)c(-c2ccc(-c3cc(OCCCC(=O)OCC)ccc3OCCCC(=O)OCC)c3nsnc23)c1 [Compound (6)]		
−1.93	−1.88			CCOC(=O)CCCOc1ccc(-c2ccc(-c3ccc(OCCCC(=O)OCC)cc3OCCCC(=O)OCC)c3nsnc23)c(OCCCC(=O)OCC)c1 [Compound (7)]		

From patent publication US20240120519A1, “NON-AQUEOUS REDOX FLOW BATTERIES” (ENI S.P.A., priority 2020, published 2024)
